Tests used:
[1] = tested on: human iPSC-derived MKs and platelets; assay: Generation of MKs and platelets from human iPSC-derived HPCs at 37°C, flow cytometry; type: cell-based
Protocol: Directed differentiation to MKs and platelets from iPSCs and ESCs was performed as described previously. Briefly, 3 × 10^4 HPCs derived from iPS‐sacs on C3H10T1/2 feeder cells in the presence of 20 ng/ml vascular endothelial growth factor were transferred on day 14 of culture onto C3H10T1/2 feeder cells in differentiation medium supplemented with 50 ng/ml stem cell factor, 100 ng/ml thrombopoietin, 25 U/ml heparin sodium, and test compounds at 24°C or 37°C. The medium was refreshed every 3 days, and nonadherent cells were collected and analyzed on days 22–24.
(§1) Flow cytometric analysis was performed as previously described. Briefly, iPSC‐ and ESC‐derived MKs on days 22–24 and platelets in their supernatants were stained with combinations of antibodies for 30 minutes on ice (for MKs) or at room temperature (for platelets). Samples of MKs/platelets were then washed, diluted with staining medium (phosphate‐buffered saline containing 3% fetal bovine serum), and analyzed using flow cytometry (FACSAria; BD). Trucount tubes (BD) were used to quantify the MKs and platelets.

[2] = tested on: iPSC platelets, vWF/GPIbα-dependent aggregation; assay: Flow cytometry-based platelet aggregation assay (ristocetin); type: cell-based, human; conditions: 15 µmol/l KP-457 during generation; 2 mg/ml ristocetin; vs. generated in its absence
Protocol: Flow cytometry platelet aggregation assays were performed as recently described. Aliquots of iPSC platelets, imMKCL platelets, or fresh washed human platelets were stained with anti‐CD9‐APC or anti‐CD9‐V450, and CD41a^+ platelets were counted using flow cytometry. Next, aliquots of platelets stained using anti‐CD9‐APC were mixed with platelets stained using anti‐CD9‐V450 at a 1:1 ratio (1–4 ×10^5 cells/ml each) and suspended in Tyrode‐HEPES solution containing […] PPACK (a thrombin inhibitor), 10% filtered human plasma, and 3 mmol/l CaCl2. The mixed platelets were stimulated with 2 mg/ml ristocetin or 100 µmol/l TRAP6 and 50 µmol/l ADP for 10 minutes at 37°C while swirling, fixed, and analyzed using flow cytometry. To quantify platelet aggregation, an index of double‐colored events (%) was calculated using the following formula described elsewhere: […]

Human ADAM17 = biological target: T1, Human ADAM17 (Homo sapiens, UniProt P78536); assay: MMP and ADAM activity assay (fluorescence-based, cell-free): ADAM17; type: biochemical
T1 construct: purchased R&D Systems
Description: (§2) Human ADAM17, ADAM10, and MMP17 were from R&D Systems (Minneapolis, MN, http://www.rndsystems.com), and human MMP1, MMP2, MMP3, MMP8, MMP9, MMP13, and MMP14 were from EMD Millipore. MMP1, MMP2, MMP8, MMP9, MMP13, and MMP17 were activated using p‐aminophenylmercuric acetate (Sigma‐Aldrich) before testing. Fluorogenic substrates for measuring activity of ADAM10 and ADAM17 [Nma‐[…](Dnp)r‐NH2, based on the cleavage site of TNF‐α]; MMP1, MMP9, MMP13, and MMP14 [Dnp‐P‐Cha‐GC(Me)HAK(N‐Me‐Abz)‐NH2]; MMP3 [MOCAc‐RPKPVE‐Nva‐WRK(Dnp)‐NH2]; and MMP2, MMP8, and MMP17 [MOCAc‐PLGL‐A2pr(Dnp)‐AR‐NH2] were all provided by Peptide Institute (Osaka, Japan, https://www.peptide.co.jp/en) and used as substrates. In addition, inhibitory activities were measured using LC/MS/MS with a GPIbα‐based substrate peptide ([…]), a C terminal‐based standard peptide ([…]), and an internal standard peptide ([…]). These peptides were synthetized by Scrum (Tokyo, Japan, http://www.scrum‐net.co.jp/english/top_en.htm).

human MMP3 = biological target: T2, human MMP3 (Homo sapiens, UniProt P08254); assay: MMP and ADAM activity assay (fluorescence-based): MMP3; type: biochemical; conditions: cell-free fluorescence assay
T2 construct: purchased EMD Millipore
Protocol: as §2, with “KP‐457 and GM‐6001 were tested for their ability to inhibit MMP‐ and ADAM‐catalyzed cleavage of substrates in a fluorescence‐based assay. Human” for “Human”

human MMP2 = biological target: T3, human MMP2 (Homo sapiens, UniProt P08253); assay: MMP and ADAM activity assay (fluorescence-based): MMP2; type: biochemical; conditions: cell-free fluorescence assay
T3 construct: purchased EMD Millipore
Description: as §2

[3] = Good laboratory practice genotoxicity studies; conditions: data not shown
human MMP1 = biological target: T4, human MMP1 (Homo sapiens, UniProt P03956); assay: MMP and ADAM activity assay (fluorescence-based): MMP1; type: biochemical; conditions: cell-free fluorescence assay
T4 construct: purchased EMD Millipore
Description: as §2

human MMP13 = biological target: T5, human MMP13 (Homo sapiens, UniProt P45452); assay: MMP and ADAM activity assay (fluorescence-based): MMP13; type: biochemical; conditions: cell-free fluorescence assay
T5 construct: purchased EMD Millipore
Description: as §2

[4] = tested on: thrombus formation in NOG mice; assay: In vivo imaging of thrombus formation by transfused iPSC platelets; design: species or system mouse; conditions: 1 × 10^7 CD41a+ iPSC platelets generated with or without KP-457, irradiated NOG mice, laser injury; p = .0556
Protocol: The procedure was identical to that in the previous report. Small vessels (<25 μm in diameter) within mesenteric capillaries of male NOD/SCID/IL‐2Rg‐null (NOG) mice were evaluated. NOG mice were purchased from the Central Institute for Experimental Animals (Kawasaki, Kanagawa, Japan, http://www.ciea.or.jp/en/index.html).

human washed platelets = assay: CCCP-induced GPIbα shedding from washed platelets; type: cell-based; conditions: CCCP-treated human platelets
Protocol: as §1
Washed platelets were prepared as described elsewhere.

[5] = KP-457 15 μmol/l, GM-6001 50 μmol/l, p38 MAP kinase inhibitor 10 μmol/l

T1 sequence (P78536 215-824): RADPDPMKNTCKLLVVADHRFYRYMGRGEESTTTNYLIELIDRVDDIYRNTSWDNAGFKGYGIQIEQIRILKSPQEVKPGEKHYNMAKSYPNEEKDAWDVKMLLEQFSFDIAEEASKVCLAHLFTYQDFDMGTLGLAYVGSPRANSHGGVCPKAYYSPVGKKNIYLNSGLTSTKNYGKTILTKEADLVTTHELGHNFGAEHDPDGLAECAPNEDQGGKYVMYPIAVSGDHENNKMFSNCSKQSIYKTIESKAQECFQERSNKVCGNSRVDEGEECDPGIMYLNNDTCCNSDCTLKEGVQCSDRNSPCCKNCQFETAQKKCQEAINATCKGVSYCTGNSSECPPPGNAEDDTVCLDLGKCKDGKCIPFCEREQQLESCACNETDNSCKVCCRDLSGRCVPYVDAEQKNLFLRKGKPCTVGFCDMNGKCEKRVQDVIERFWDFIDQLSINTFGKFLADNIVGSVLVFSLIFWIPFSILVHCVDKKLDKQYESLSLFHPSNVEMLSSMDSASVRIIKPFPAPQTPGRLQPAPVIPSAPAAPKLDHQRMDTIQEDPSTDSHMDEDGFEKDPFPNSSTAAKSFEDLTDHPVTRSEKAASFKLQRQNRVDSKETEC
T2 sequence (P08254 100-477): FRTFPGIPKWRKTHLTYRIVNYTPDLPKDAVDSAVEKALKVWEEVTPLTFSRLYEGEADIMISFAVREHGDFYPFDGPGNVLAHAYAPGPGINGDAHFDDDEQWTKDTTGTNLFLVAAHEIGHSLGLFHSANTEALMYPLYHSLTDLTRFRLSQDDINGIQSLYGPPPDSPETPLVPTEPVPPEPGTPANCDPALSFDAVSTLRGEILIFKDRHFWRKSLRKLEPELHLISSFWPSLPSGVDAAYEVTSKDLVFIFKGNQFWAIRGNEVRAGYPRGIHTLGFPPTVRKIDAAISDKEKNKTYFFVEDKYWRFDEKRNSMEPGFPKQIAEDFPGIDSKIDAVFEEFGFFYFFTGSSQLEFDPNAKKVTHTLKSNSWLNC
T3 sequence (P08253 110-660): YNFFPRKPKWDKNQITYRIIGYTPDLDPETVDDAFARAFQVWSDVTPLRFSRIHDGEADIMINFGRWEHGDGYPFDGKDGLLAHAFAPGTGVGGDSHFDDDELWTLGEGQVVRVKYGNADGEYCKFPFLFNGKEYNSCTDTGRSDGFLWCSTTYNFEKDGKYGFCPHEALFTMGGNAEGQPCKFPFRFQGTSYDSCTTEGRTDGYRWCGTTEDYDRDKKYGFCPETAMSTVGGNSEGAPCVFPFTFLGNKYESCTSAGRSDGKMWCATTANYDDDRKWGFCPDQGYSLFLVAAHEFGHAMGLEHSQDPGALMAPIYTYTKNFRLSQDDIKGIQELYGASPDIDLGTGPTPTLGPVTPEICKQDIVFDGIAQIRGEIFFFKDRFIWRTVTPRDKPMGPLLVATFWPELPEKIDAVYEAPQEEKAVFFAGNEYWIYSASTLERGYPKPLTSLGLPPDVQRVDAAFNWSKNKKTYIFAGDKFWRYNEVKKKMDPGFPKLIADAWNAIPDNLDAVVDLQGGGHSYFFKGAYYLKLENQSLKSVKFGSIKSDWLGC
T4 sequence (P03956 100-469): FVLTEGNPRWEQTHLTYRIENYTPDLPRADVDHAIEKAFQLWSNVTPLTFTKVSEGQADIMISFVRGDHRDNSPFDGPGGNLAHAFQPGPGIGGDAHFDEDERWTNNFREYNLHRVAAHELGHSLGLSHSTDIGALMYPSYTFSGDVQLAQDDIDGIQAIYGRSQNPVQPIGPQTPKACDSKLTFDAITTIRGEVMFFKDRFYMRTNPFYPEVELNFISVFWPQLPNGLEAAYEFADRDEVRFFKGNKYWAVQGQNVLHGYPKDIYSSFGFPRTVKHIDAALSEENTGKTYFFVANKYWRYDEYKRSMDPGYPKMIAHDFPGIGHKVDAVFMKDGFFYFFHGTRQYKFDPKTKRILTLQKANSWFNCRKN

With CC#CCOc1ccc(S(=O)(=O)CC(c2ccc(CNS(C)(=O)=O)cc2)N(O)C=O)cc1 (stereo not shown) [KP-457, N‐(2‐{[4‐(but‐2‐yn‐1‐yloxy)phenyl]sulfonyl}‐1‐[4‐(methylsulfonamidomethyl)phenyl]ethyl)‐N‐hydroxyformamide] the “number of CD41a+ total iPSC platelets” value [1, 5] was “no significant effect”, the “retention of GPIbα expression on CD41a+ iPSC-derived platelets” value [1, 5] was “able to retain” and the “number of CD41a+ iPSC-derived MKs” value ([1]; KP-457 15 μmol/l, GM-6001 50 μmol/l, p38 MAP kinase inhibitor 10 μmol/l, MK differentiation and platelet production phases) was “no significant effect”. For the same molecule, the “GPIbα+ population in human iPSC-derived CD41a+ platelets” value ([1]; KP-457 15 μmol/l, representative FACS plot, vehicle 48.3%) was 80.7%, the “GPIbα retention by iPSC-derived platelets, inhibitor only during platelet production phase” value ([1]; days 21–23 or 24, KP-457 15, BIRB796 10, U0126 10, BMS345541 10, Z-VAD 10, Ro31-8220 3 μmol/l) was “more effectively sustained” and the “ristocetin-induced vWF/GPIbα-dependent aggregation of iPSC platelets generated with inhibitor” value [2] was “greater aggregation capability”. For the same molecule, the “potency relative to GM-6001, inhibition of cleavage of the TNF-α sequence” value (Human ADAM17; cell-free enzyme assay) was 10 times, the “selectivity for ADAM17 over other MMPs and ADAM10” value (Human ADAM17; cell-free enzyme assays) was greater than 50 times and the IC50 (Human ADAM17; cell-free fluorescence assay, TNF-α cleavage site substrate) was 11.1 nM. For the same molecule, the IC50 (human MMP3) was 9760 nM, the IC50 (human MMP2) was 717 nM and the genotoxicity [3] was “neither genotoxicity nor systemic toxicity”. For the same molecule, the IC50 (human MMP1) was greater than 100000 nM, the IC50 (human MMP13) was 930 nM and the “iPSC platelets contributing to thrombus formation in vivo” value [4] was “higher number of iPSC platelets contributed to thrombus formation”. For the same molecule, the “potency relative to GM-6001, inhibition of GPIbα shedding in the cellular assay” value (human washed platelets) was 10 times.

From publication PMC5442763, “Selective Inhibition of ADAM17 Efficiently Mediates Glycoprotein Ibα Retention During Ex Vivo Generation of Human Induced Pluripotent Stem Cell‐Derived Platelets” (Stem Cells Translational Medicine, 2016)
